The values below come from patent US4837304A, “Inhibitor of ribonucleotide reductase” (Merck & Co., Inc., priority 1987, dated 1989).

Non-standard residues stand in square brackets, D forms with d. Residues, ends and D or L forms follow the SMILES beside them. No end group written: not given here.

The target in one assay is T1, Herpes Simplex Virus Ribonucleotide Reductase (HSV RR) (Human herpesvirus 2, UniProt P89462).
T1 construct: HSV RR was purified by Baby Hamster Kidney cells that were cultured with HSV2 Strain 186; made in house; host or cells: Baby Hamster Kidney cells infected with HSV2 Strain 186; crude enzyme per Huszar et al., then hydroxyapatite chromatography
T1 sequence (P89462 whole entry): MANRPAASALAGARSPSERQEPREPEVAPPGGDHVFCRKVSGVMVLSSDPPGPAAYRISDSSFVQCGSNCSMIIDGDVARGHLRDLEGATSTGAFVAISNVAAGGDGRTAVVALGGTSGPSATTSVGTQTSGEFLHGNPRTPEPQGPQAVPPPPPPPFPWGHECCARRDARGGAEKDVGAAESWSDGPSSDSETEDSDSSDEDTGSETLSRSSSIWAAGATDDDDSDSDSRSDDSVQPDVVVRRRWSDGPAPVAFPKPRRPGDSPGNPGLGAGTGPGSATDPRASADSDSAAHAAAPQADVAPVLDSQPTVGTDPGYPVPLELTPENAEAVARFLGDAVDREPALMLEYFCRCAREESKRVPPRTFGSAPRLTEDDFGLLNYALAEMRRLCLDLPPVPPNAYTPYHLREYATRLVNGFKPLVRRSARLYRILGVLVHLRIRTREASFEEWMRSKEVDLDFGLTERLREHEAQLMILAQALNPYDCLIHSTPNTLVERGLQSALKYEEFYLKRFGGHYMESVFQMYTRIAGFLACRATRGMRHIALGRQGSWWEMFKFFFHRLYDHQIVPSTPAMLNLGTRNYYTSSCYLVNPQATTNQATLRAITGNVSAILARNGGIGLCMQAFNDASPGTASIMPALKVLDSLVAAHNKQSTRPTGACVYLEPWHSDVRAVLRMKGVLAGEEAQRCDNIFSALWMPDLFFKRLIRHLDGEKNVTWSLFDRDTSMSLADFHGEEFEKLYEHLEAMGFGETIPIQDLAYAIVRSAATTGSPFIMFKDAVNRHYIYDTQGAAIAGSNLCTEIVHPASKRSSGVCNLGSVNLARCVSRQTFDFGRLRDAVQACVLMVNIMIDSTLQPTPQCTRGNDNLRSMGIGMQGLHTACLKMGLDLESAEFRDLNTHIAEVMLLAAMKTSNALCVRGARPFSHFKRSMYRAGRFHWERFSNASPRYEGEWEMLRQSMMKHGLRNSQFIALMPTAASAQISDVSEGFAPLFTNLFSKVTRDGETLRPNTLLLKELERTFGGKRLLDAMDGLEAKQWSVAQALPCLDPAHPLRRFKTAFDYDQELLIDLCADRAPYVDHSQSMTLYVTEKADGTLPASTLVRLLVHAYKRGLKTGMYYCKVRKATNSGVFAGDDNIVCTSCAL
Briefly: Assay of inhibition of HSV RR (reduction of tritiated cytidine-diphosphate to deoxyribo-cytidinediphosphate).
Conditions: not given
The class given is biochemical, HSV2 Strain 186. On the procedure:
After infection, cells were harvested and lysed.
HSV RR activity was determined as the ability of the enzyme to catalyze the reduction of tritiated cytidine-diphosphate to deoxyribo-cytidinediphosphate in 30 minutes at 37° C. in the presence of dithiothreitol and MgCl2. Activity of oligopeptide inhibitors was determined by adding them to the reaction mix at the beginning of the incubation. Enzyme was not preincubated with inhibitor.
These were analyzed for amino acid composition and in some cases sequenced. Dry peptides were resuspended in 100 mM HEPES (pH 8.0) at about 2mM, relyophilized, and stored in aliquots at -80° C. Immediately prior to use they were rehydrated with distilled H2 O and centrifuged to remove any undissolved peptide.
Turning to `CC(C)C[C@H](NC(=O)[C@H](CC(=O)O)NC(=O)[C@H](CC(N)=O)NC(=O)[C@@H](NC(=O)[C@@H](NC(=O)[C@H](C)NC(=O)CNC(=O)[C@@H](C)NC(=O)[C@@H](N)Cc1ccc(O)cc1)C(C)C)C(C)C)C(=O)O` [Y dA G A V V N D L], the IC50 was 210 µM.

The assay is the same for the next values; noted with them: 30 minutes at 37° C., dithiothreitol and MgCl2; enzyme not preincubated with inhibitor; read-out: IC50 (μM concentration of peptide producing 50% inhibition of enzyme activity).
For `CC(C)C[C@H](NC(=O)[C@H](CC(=O)O)NC(=O)[C@H](CC(N)=O)NC(=O)[C@@H](NC(=O)[C@@H](NC(=O)[C@@H](C)NC(=O)CNC(=O)[C@H](C)NC(=O)[C@@H](N)Cc1ccc(O)cc1)C(C)C)C(C)C)C(=O)O` [Y A G dA V V N D L], the IC50 is 72 µM.

As to `CC(C)C[C@H](NC(=O)[C@H](CC(=O)O)NC(=O)[C@H](CC(N)=O)NC(=O)[C@H](NC(=O)[C@@H](NC(=O)[C@H](C)N)C(C)C)C(C)C)C(=O)O` [A V dV N D L] (H-AV[dV]NDL-OH), the IC50 worked out at 600 µM.

`CC(C)C[C@H](NC(=O)[C@H](CC(=O)O)NC(=O)[C@H](CC(N)=O)NC(=O)[C@@H](NC(=O)[C@@H](NC(=O)[C@H](C)NC(=O)CNC(=O)[C@H](C)NC(=O)[C@H](N)Cc1ccc(O)cc1)C(C)C)C(C)C)C(=O)O` [dY A G A V V N D L]: the IC50 worked out at 40 µM.

In the case of `CC(C)C[C@H](NC(=O)[C@H](CC(=O)O)NC(=O)[C@H](CC(N)=O)NC(=O)[C@@H](NC(=O)[C@@H](NC(=O)[C@H](C)NC(=O)[C@@H](C)NC(=O)[C@H](C)NC(=O)[C@@H](N)Cc1ccc(O)cc1)C(C)C)C(C)C)C(=O)O` [Y A dA A V V N D L] (H-YA[dA]AVVNDL-OH), the IC50 amounted to 88 µM.

For `CC(C)C[C@H](NC(=O)[C@H](CC(=O)O)NC(=O)[C@H](CC(N)=O)NC(=O)[C@@H](NC(=O)[C@@H](NC(=O)[C@@H](C)N)C(C)C)C(C)C)C(=O)O` [dA V V N D L] (H-[dA]VVNDL-OH), the IC50 was 90 µM.

Consider `CC(C)C[C@H](NC(=O)[C@H](CC(=O)O)NC(=O)[C@@H](CC(N)=O)NC(=O)[C@@H](NC(=O)[C@@H](NC(=O)[C@H](C)NC(=O)CNC(=O)[C@H](C)NC(=O)[C@@H](N)Cc1ccc(O)cc1)C(C)C)C(C)C)C(=O)O` [Y A G A V V dN D L], for which the IC50 is above 620 µM.

As to `CC(C)C[C@H](NC(=O)[C@H](CC(=O)O)NC(=O)[C@H](CC(N)=O)NC(=O)[C@@H](NC(=O)[C@@H](NC(=O)[C@H](N)Cc1ccc(O)cc1)C(C)C)C(C)C)C(=O)O` [dY V V N D L] (H-[dY]VVNDL-OH), the IC50 came to 30 µM.

For `CC(C)C[C@H](NC(=O)[C@@H](CC(=O)O)NC(=O)[C@H](CC(N)=O)NC(=O)[C@@H](NC(=O)[C@@H](NC(=O)[C@H](C)N)C(C)C)C(C)C)C(=O)O` [A V V N dD L] (H-AVVN[dD]L-OH), the IC50 came out at 520 µM.

Turning to `CC(C)C[C@H](NC(=O)[C@H](CC(=O)O)NC(=O)[C@@H](CC(N)=O)NC(=O)[C@@H](NC(=O)[C@@H](NC(=O)[C@H](C)N)C(C)C)C(C)C)C(=O)O` [A V V dN D L] (H-AVV[dN]DL-OH), the IC50 came to 460 µM.

Another assay deals with ribonucleotide reductase enzyme of herpes simplex virus (Human herpesvirus 1, UniProt P08543).
Experiment: not given
The note with it: Nature 321:439-441 and 441-443 (1986); cited from earlier work.
Regarding Tyr Ala Gly Ala Val Val Asn Asp Leu, the “inhibition in vitro of the activity of the enzyme” value was “inhibited”.

Another assay has as its target T2, ribonucleotide reductase enzyme of herpes simplex virus (Human herpesvirus 1, UniProt P08543).
T2 sequence (P08543 whole entry, looked up): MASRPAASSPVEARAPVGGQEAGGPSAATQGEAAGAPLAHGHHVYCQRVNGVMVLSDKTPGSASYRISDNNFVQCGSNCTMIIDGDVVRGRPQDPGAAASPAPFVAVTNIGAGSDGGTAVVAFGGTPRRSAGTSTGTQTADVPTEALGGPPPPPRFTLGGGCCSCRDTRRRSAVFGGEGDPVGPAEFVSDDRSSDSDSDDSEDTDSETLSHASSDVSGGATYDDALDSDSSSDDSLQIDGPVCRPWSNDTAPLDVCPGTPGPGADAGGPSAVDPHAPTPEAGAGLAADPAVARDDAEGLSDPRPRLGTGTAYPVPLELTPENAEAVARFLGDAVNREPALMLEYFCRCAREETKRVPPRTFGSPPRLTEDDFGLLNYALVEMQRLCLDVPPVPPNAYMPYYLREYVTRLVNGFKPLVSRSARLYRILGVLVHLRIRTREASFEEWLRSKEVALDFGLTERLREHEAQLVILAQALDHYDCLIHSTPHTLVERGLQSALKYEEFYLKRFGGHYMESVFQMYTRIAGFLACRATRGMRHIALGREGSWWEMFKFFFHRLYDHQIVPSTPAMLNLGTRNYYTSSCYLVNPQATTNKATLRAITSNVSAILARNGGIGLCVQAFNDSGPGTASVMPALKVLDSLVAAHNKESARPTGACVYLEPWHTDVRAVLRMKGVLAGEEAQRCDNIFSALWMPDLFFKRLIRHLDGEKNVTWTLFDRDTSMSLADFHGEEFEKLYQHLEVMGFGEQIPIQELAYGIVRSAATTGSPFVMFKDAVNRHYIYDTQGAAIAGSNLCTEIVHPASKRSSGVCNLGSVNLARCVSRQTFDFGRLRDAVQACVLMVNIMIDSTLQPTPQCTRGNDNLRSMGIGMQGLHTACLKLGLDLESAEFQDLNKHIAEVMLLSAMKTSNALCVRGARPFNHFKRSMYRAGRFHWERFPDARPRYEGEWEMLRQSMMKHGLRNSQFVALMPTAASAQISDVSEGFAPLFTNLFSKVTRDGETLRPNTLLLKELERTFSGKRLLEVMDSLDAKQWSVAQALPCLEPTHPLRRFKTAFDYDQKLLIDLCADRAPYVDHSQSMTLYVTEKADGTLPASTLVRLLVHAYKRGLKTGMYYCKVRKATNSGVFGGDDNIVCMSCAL
Experiment: not given
The note with it: Nature 321:439-441 and 441-443 (1986); cited from earlier work.
Take “YGAVVNDL [8-desalanine homolog of the nonapeptide, disclosed by Dutia et al]”: the “inhibition in vitro of the activity of the enzyme” value is given as “inhibited”.
